Measurements taken from ChEMBL document CHEMBL1201862, “PubChem BioAssay data set” (2004).
Activity calls are given as the source filed them.

Experiments:
[1] = inhibitors of firefly luciferase expression or activity, dose response, H4 neuroglioma cells, luminescence (AID 1990); format: functional, cell-based
[2] = Luminescence Cell-Based Dose Response HTS to Identify Inhibitors of 5'UTR Stem-Loop Driven Prion Protein mRNA Translation in H4 Neuroglioblastoma Cells. [Related pubchem assays: 1827 (Project Summary), 1813 (Primary HTS)]; format: functional
[3] = inhibitors of SNCA 5'UTR-driven reporter translation, confirmation, H4 neuroglioma cells, luminescence (AID 1988); format: functional, cell-based
[4] = target: Glycogen synthase kinase-3 beta (Homo sapiens, UniProt P49841); assay: GSK3beta kinase inhibitors, dose response, biochemical, microfluidics, dry powder samples, set 2 (AID 623989); format: functional
[5] = target: Glycogen synthase kinase-3 alpha (Homo sapiens, UniProt P49840); assay: human GSK3 alpha kinase inhibition, dose response, selectivity assay for GSK3beta inhibitor project, biochemical, microfluidics, dry powder samples, set 2 (AID 623978); format: functional
[6] = target: Cyclin-dependent kinase 5/CDK5 activator 1 (Homo sapiens, UniProt Q00535); assay: CDK5-p25 kinase inhibition, dose response, selectivity assay for GSK3beta inhibitor project, biochemical, microfluidic mobility shift, dry powder, set 2 (AID 623979); format: functional
[7] = NIH-3T3 fibroblast cytotoxicity, dose response, cytotoxicity control, cell-based, fluorescence, Alamar Blue, secondary assay (AID 2327); format: functional;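 further: NIH-3T3 mouse fibroblasts cultured with fluconazole at 8 µg/mL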
[8] = C. albicans growth with fluconazole, confirmation, fluorescence, retest (AID 2467); format: functional, cell-based
[9] = target: Serine/threonine-protein phosphatase (Candida dubliniensis (strain CD36 / CBS 7987 / NCPF 3949 / NRRLY-17841) (Yeast), UniProt B9W6M3); assay: calcineurin pathway inhibitors in yeast reporter, dose response, S. cerevisiae, CDRE-lacZ, luminescence, secondary (AID 2388); format: functional, cell-based;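 further: yeast reporter cells carrying a calcineurin-responsive lacZ construct stimulated with calcium chloride; luminescent beta-galactosidase reporter signal in whole cells rather than isolated phosphatase activity; potency for inhibition where a drop in reporter signal means calcineurin blockade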
INS1 = assay: beta cell apoptosis inhibitors, cytokine rescue, dose response, luminescence, retest (AID 449756); format: functional, cell-based; details: Rattus norvegicus;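 further: cell death triggered by IL-1 beta plus TNF-alpha plus IFN-gamma mixture; protective hits raise ATP signal compared with cytokine alone wells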
[10] = target: ATP-dependent molecular chaperone HSP82 (Candida albicans (strain WO-1) (Yeast), UniProt C4YTQ8); assay: loss of DOC-induced GRE-beta-galactosidase reporter signal, dose response, Hsp90 inhibitor project, S. cerevisiae, luminescence (AID 2400); format: functional, cell-based;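 further: beta-galactosidase luminescence from glucocorticoid response element reporter as proxy for Hsp90 function; inhibitor potency where signal loss means Hsp90 inhibition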
[11] = target: T1, High affinity choline transporter 1 (Homo sapiens, UniProt Q9GZV3); assay: CHT activators, dose response, cell-based, 10-point CRC, membrane potential dye (AID 602376); format: functional
T1 sequence (Q9GZV3 whole entry): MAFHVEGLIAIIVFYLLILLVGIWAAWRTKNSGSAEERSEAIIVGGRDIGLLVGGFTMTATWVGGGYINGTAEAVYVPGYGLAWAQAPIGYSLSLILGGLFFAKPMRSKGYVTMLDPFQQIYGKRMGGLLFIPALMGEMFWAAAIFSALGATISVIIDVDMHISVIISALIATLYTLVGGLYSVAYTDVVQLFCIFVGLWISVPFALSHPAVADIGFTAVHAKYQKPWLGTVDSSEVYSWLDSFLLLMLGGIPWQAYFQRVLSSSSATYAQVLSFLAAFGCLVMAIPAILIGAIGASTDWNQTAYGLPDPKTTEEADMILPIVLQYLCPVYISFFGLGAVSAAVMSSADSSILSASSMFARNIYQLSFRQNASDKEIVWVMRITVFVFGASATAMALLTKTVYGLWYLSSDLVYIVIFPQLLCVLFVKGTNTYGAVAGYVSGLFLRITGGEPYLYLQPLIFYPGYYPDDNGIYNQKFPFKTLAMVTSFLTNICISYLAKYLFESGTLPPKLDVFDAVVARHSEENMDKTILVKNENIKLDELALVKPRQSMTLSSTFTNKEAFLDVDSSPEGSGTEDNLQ

HEK293 = assay: inhibitors of LMP1-driven NF-kB reporter, dose response, cell-based, HEK293, luciferase, cherry-pick (AID 588343); format: functional; details: Homo sapiens
[12] = Shn3 3'UTR reporter inhibitors, dose response, cell-based, Clone20 osteoblasts, firefly luciferase, cherry-picked (AID 624132); format: functional;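 further: firefly luciferase luminescence from reporter carrying the Shn3 3'UTR in osteoblasts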
[13] = HepG2 cell cytotoxicity, dose response, cytotoxicity control for Shn3 inhibitor project, CellTiter-Glo, cherry-picked (AID 624134); format: functional, cell-based
[14] = control 3'UTR Renilla luciferase suppression, dose response, counter-screen for Shn3 inhibitor project, cell-based, Clone20-Shn3RL, cherry-picked (AID 624133); format: functional
BJ [15] = assay: cytotoxicity toward BJ-TERT fibroblasts, dose response, cell-based, RAS-independent, luminescence (AID 1933); format: functional; details: Homo sapiens
BJ [16] = assay: cells; format: functional, cell-based; details: Homo sapiens
[17] = target: T2, Luciferin 4-monooxygenase (Photinus pyralis, UniProt P08659); assay: firefly luciferase enzyme inhibitors, dose response, biochemical, luminescence (AID 1891)
[18] = Luminescence Cell-Based Dose Confirmation HTS to Identify Inhibitors of Platelet Dense Granule Release. [Related pubchem assays: 1663 (Primary HTS), 1678 (Summary of Project)]; format: functional
BJ [19] = assay: cytotoxicity toward BJ-TERT-LT-ST fibroblasts, dose response, cell-based, RAS-independent, luminescence (AID 1935); format: functional; details: Homo sapiens;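 further: BJ fibroblasts immortalized with TERT plus LT and ST oncogenes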
[20] = cytotoxicity toward DRD oncogenic fibroblasts, dose response, cell-based, non-viral oncogenic, luminescence (AID 1934); format: functional; details: Homo sapiens
Jurkat = assay: antigen receptor-induced NF-kB inhibitors, dose response, Jurkat, luciferase reporter, luminescence, B- and T-cell (AID 489004); format: functional, cell-based; details: Homo sapiens;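 further: NF-kB luciferase reporter Jurkat cells stimulated with PMA plus ionomycin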
[21] = cytotoxicity in HEK-293T NF-kB-Luc cells, dose response, cytotoxicity control for B/T-cell NF-kB inhibitor project, cell-based, uHTS hits (AID 489019); format: functional;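 further: IC50 reflects cytotoxicity as loss of cell viability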
[22] = target: Heat shock protein HSP 90-alpha (Homo sapiens, UniProt P07900); format: functional, organism-based
BJ [23] = assay: cytotoxicity toward Ras-transformed BJeLR fibroblasts, dose response, cell-based, alamar blue fluorescence, cherrypicked samples (AID 2631); format: functional; details: Homo sapiens;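 further: confirmatory dose-response assay in RAS-dependent BJ fibroblasts engineered with TERT, LT and ST, with cytotoxicity read by fluorescence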
[24] = target: T2, Luciferin 4-monooxygenase; assay: firefly luciferase enzyme inhibitors, dose response, biochemical, dry powder samples, plate reader (AID 588451)
H4 [25] = assay: inhibitors of control reporter signal in H4 cells – cell-based, plate reader, dry powder samples, counter-screen for prion reporter project, dose response (AID 540255); format: functional; details: Homo sapiens
H4 [26] = assay: Amyloid Precursor 5' UTR neuroblastoma cell reporter line Measured in Cell-Based System Using Plate Reader - 2078-04_Inhibitor_Dose_DryPowder_Activity. [Related pubchem assays (depositor defined):AID488894]; format: functional; details: Homo sapiens
H4 [27] = assay: Inhibitors of Prion Protein 5' UTR mRNA Measured in Cell-Based System Using Plate Reader - 2078-01_Inhibitor_Dose_DryPowder_Activity. [Related pubchem assays (depositor defined):AID488894]; format: functional; details: Homo sapiens
[28] = inhibitors of HIV Env-driven cell fusion, dose response, cherry-pick (AID 652057); format: functional, cell-based
[29] = CEM21 lymphoblast cell cytotoxicity, dose response, cytotoxicity control for viral fusion inhibitor project, CellTiter-Glo luminescence, cherry-picked (AID 652042); format: functional, cell-based;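 further: potency for signal decrease meaning cytotoxicity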
[30] = ZM109 Env clade C HIV-1 fusion inhibitors, dose response, HeLa effector, CEM target cells, luciferase, cherry-pick (AID 652058); format: functional, cell-based
[31] = off-target signal loss in HeLa-CEM21 co-culture – HeLa F-luc CTL cells, cherry-picked, counter-screen for HIV-1 Env fusion inhibitor project, dose response (AID 652040); format: functional, cell-based;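 further: potency for signal decrease marking cytotoxic or nonspecific inhibition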
[32] = inhibitors of clade B AD8 Env fusion, dose response, cell-based, cherry-pick (AID 652062); format: functional;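 further: luciferase signal from cell-cell fusion driven by HIV-1 clade B AD8 Env; potency is for inhibitors of fusion seen as a drop in luminescence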
[33] = A549 cell cytotoxicity, dose response, cytotoxicity control, plate reader, cherry-pick, antagonist series (AID 743412); format: functional, cell-based
[34] = HepG2 cell cytotoxicity, dose response, cytotoxicity control, plate reader, cherry-pick, antagonist series (AID 743416); format: functional, cell-based
[35] = LGR2 antagonists, dose response, cell-based, HEK293, CRE-luciferase reporter, cherry pick, set 2 (AID 743343); format: functional;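 further: transfected cells were stimulated with diluted bursicon conditioned medium after compound addition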
[36] = MC4R antagonists, dose response, counter-screen for LGR2 antagonist project, cell-based, plate reader, cherry pick (AID 743444); format: functional;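 further: transfected HEK 293 cells stimulated with alpha-MSH peptide; potency of inhibitors of the alpha-MSH evoked signal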
[37] = HEK293 cell cytotoxicity, dose response, cytotoxicity control, plate reader, cherry-picked samples (AID 743446); format: functional, cell-based

T2 sequence (P08659 whole entry): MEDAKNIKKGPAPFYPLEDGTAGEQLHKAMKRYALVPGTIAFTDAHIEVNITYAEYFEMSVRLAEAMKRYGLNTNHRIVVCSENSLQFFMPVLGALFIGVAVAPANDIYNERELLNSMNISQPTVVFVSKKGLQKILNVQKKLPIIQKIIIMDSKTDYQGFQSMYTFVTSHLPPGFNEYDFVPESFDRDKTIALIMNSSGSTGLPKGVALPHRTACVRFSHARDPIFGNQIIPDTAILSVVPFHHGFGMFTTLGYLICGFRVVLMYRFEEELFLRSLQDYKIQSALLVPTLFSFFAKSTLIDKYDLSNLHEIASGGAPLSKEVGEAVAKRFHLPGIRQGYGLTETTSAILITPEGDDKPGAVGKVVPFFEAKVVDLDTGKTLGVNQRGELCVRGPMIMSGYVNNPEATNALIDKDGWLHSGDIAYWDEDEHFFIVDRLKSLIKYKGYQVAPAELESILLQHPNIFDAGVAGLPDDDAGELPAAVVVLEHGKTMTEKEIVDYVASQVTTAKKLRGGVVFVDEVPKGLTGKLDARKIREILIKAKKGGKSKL
Serine/threonine-protein phosphatase, sequence (B9W6M3 whole entry): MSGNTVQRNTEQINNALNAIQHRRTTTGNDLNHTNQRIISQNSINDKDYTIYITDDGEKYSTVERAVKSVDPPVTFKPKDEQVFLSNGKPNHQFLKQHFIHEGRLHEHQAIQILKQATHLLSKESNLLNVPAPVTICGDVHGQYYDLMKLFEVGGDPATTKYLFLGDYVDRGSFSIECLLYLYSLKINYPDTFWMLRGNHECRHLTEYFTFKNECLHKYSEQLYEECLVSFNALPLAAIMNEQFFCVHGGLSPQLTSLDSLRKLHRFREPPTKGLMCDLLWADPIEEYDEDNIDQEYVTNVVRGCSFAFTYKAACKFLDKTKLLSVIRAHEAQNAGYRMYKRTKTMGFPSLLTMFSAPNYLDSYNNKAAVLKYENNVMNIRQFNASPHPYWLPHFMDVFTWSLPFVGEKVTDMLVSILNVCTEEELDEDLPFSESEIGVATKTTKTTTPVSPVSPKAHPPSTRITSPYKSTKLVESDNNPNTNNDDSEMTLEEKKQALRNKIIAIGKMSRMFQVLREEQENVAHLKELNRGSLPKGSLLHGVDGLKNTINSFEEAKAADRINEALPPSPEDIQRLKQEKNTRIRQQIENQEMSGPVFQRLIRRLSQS
ATP-dependent molecular chaperone HSP82, sequence (C4YTQ8 whole entry): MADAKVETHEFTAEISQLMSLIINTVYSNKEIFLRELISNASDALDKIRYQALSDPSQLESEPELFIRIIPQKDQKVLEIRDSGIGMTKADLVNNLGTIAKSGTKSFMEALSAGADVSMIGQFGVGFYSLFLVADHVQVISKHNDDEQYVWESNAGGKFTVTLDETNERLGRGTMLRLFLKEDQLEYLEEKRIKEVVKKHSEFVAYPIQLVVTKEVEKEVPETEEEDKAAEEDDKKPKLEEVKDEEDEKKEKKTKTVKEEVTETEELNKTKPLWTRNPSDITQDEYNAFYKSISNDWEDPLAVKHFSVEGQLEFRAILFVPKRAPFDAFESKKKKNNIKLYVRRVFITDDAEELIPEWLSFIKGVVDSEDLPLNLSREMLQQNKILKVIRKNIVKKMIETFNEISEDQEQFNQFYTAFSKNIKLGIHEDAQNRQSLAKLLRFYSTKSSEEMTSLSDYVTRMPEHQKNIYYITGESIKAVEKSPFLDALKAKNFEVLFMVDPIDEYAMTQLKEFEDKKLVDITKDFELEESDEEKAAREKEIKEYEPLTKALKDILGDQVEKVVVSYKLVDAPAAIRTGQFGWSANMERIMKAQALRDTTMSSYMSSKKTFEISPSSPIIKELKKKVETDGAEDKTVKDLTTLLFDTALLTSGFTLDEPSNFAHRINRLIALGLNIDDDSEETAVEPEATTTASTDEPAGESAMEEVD
Glycogen synthase kinase-3 alpha, sequence (P49840 whole entry): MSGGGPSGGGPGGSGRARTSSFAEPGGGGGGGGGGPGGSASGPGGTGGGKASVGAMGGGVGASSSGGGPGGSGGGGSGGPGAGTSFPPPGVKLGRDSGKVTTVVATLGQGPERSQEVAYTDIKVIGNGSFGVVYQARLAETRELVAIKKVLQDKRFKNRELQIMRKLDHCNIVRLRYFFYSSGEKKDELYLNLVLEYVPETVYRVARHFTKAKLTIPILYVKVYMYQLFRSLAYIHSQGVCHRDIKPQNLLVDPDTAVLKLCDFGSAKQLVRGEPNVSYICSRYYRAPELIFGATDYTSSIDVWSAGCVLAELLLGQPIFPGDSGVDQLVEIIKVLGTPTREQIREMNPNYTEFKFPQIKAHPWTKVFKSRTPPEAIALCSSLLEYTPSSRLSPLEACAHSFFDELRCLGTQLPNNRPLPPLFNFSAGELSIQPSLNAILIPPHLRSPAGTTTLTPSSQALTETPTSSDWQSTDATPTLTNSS
Glycogen synthase kinase-3 beta, sequence (P49841 whole entry): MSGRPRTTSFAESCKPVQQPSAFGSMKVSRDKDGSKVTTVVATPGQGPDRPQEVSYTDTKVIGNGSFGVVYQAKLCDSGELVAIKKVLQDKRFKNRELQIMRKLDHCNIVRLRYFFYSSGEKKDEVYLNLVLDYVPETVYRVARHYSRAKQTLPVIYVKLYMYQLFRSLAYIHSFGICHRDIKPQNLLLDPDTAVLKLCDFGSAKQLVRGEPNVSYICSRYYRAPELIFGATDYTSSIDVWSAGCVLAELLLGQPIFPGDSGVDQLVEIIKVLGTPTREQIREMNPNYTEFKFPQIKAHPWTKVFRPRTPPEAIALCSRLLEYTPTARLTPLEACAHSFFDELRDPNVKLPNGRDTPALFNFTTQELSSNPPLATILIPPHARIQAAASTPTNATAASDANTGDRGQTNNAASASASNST
Cyclin-dependent kinase 5/CDK5 activator 1, sequence (Q00535 whole entry): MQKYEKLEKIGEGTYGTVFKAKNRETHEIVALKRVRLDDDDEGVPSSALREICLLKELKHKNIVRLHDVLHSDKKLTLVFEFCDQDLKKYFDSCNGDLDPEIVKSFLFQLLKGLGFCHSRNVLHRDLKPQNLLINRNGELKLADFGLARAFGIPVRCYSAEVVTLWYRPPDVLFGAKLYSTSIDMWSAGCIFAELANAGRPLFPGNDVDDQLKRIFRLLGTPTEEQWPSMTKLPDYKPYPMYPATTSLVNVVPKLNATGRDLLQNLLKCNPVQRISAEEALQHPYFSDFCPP
Cyclin-dependent kinase 5/CDK5 activator 1, sequence (Q15078 whole entry, further chain): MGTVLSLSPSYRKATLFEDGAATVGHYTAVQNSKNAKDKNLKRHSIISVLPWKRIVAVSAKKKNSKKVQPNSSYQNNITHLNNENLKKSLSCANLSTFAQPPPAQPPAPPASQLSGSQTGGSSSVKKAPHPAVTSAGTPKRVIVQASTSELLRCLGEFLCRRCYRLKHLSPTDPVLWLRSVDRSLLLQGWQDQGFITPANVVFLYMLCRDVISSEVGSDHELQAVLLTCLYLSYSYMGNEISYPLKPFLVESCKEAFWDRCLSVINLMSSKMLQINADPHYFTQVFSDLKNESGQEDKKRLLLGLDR

CCOc1cccc(-c2c(C(=O)N/N=C/c3sccc3C)nnn2-c2nonc2N)c1
EC50 [1]: > 120000 nM (not active) | EC50 [2]: 15600 nM (active) | EC50 [3]: 82200 nM (active) | AC50 [4]: 197 nM (active) | AC50 [5]: 474 nM (active) | AC50 [6]: 4070 nM (active)

C/C(=N\NC(=O)c1cc(C2CC2)nc2ccccc12)c1ccc(O)cc1O
EC50 [7]: 12900 nM (inconclusive) | EC50 [1]: 11700 nM (active) | EC50 [2]: 11400 nM (active) | EC50 [3]: 5570 nM (inconclusive) | EC50 [8]: 2460 nM (active) | EC50 [9]: > 180000 nM (inactive) | AC50 (INS1): 1010 nM (active) | EC50 [10]: > 160000 nM (inactive)

O=C(c1cccc(C(F)(F)F)c1)C1CCCN(Cc2cccn2-c2ncccn2)C1 (stereo unspecified)
EC50 [11]: 6690 nM (active)

Cc1ccccc1C(=O)NC(=S)Nc1ccc(N2CCN(C(=O)c3ccccc3)CC2)cc1
AC50 (HEK293): 1700 nM (active) | AC50 [12]: 1880 nM (active) | AC50 [13]: 51500 nM (active) | AC50 [14]: 7720 nM (active)

COc1cc(SC)ccc1C(=O)Nc1nc2ccccc2[nH]1
EC50 (BJ [15]): 1020 nM (active) | EC50 (BJ [16]): 1260 nM (active) | EC50 [17]: 152 nM (active) | EC50 [18]: 240 nM (active) | EC50 (BJ [19]): 2260 nM (active) | EC50 [20]: 930 nM (active) | IC50 (Jurkat): < 160 nM (active) | IC50 [21]: > 80000 nM (inactive) | AC50 [22]: 1420 nM (active) | EC50 (BJ [23]): > 133000 nM (inactive) | AC50 [24]: 9.03 nM (active) | AC50 (H4 [25]): 885 nM (active) | AC50 (INS1): 1120 nM (active) | AC50 (H4 [26]): < 0.015 nM (active) | AC50 (H4 [27]): 28 nM (active) | AC50 [12]: < 260 nM (active) | AC50 [13]: 28500 nM (active) | AC50 [28]: 260 nM (active) | AC50 [29]: 1280 nM (active) | AC50 [30]: 1980 nM (active) | AC50 [31]: 513 nM (active) | AC50 [32]: 319 nM (active) | AC50 [33]: 2520 nM (active) | AC50 [34]: 14500 nM (active) | AC50 [35]: < 68 nM (active) | AC50 [36]: < 68 nM (active) | AC50 [37]: 3350 nM (active)
